One experiment addresses T1, human V2 receptor (Homo sapiens, UniProt P30518).
T1 construct: expressed in transfected cells; host or cells: CHO K1 (ATCC) expressing firefly luciferase under a CRE-responsive promoter
Put plainly: Cellular in vitro assay for determining vasopressin receptor activity, V2 receptor cell line (CHO, CRE-luciferase). In kind it is cell-based. The note with it: CHO cell line transfected with human V2 receptor; [Arg8]-vasopressin at EC50 concentration; read-out: IC50 hV2.

The next experiment has as its target T2, human V1a receptor (Homo sapiens, UniProt P37288).
T2 construct: expressed in transfected cells; host or cells: CHO K1 (ATCC), also stably transfected with a modified aequorin
The experiment can be described thus: Cellular in vitro assay for determining vasopressin receptor activity, V1a receptor cell line (CHO, aequorin luminescence). In kind it is cell-based. The note with it: for IC50: CHO cell line transfected with human V1a receptor, [Arg]-vasopressin at EC50 concentration, read-out: IC50 hV1a; for ratio IC50 hV2/hV1a: selectivity ratio IC50 hV2 / IC50 hV1a. In short, it runs like this:
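Cells were plated the day before in medium containing 5 μg/ml coelenterazine and kept at 37° C. Compounds at various concentrations were then added for 10 minutes. Next, [Arg]-vasopressin at EC50 was applied and light output recorded at once, yielding IC50.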

The source of these data is patent US11173151B2, “Substituted triazole derivatives and uses thereof” (BAYER AKTIENGESELLSCHAFT, priority 2017, dated 2021).

Usually IC50 stands for the point on the concentration scale where inhibition reaches its midpoint.

T1 sequence (P30518 whole entry): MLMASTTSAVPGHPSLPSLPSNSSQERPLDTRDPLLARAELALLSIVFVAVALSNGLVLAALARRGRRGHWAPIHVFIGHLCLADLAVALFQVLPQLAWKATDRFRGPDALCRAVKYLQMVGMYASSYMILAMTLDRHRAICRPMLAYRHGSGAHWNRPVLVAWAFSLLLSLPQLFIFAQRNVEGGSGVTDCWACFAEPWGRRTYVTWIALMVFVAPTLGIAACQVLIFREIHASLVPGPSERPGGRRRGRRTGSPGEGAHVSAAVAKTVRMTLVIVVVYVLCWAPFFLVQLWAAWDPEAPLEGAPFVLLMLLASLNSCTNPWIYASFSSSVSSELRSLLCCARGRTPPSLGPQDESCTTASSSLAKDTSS
T2 sequence (P37288 whole entry): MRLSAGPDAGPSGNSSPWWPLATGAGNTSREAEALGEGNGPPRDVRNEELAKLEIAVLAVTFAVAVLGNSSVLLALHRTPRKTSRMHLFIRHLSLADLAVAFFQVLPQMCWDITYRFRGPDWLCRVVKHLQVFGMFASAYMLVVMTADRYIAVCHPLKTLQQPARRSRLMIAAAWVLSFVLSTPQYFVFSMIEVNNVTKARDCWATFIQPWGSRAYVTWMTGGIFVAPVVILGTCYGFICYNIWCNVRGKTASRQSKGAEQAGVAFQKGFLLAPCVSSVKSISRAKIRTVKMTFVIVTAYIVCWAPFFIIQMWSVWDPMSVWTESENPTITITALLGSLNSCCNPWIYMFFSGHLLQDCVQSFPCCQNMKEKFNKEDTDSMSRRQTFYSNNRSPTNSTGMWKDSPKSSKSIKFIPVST

On to `NC(=O)[C@H]1CC(F)(F)CN1C(=O)c1ncccc1-n1cnc(Cn2nc(-c3ccc(Cl)cc3)n(C[C@@H](O)C(F)(F)F)c2=O)n1` [Example 486, 1-({3-[3-({3-(4-Chlorophenyl)-5-oxo-4-[(2R)-3,3,3-trifluoro-2-hydroxypropyl]-4,5-dihydro-1H-1,2,4-triazol-1-yl}methyl)-1H-1,2,4-triazol-1-yl]pyridin-2-yl}carbonyl)-4,4-difluoro-D-prolinamide], for which the IC50 on human V2 receptor is 32000 nM. Moreover, on human V1a receptor, the IC50 came to 110 nM and the “ratio IC50 hV2/hV1a” value was 290.9.
For `O=C(NC1CC1)c1ccncc1-n1cnc(Cn2nc(-c3ccc(Cl)cc3)n(C[C@H](O)C(F)(F)F)c2=O)n1` [Example 488, 3-[3-({3-(4-chlorophenyl)-5-oxo-4-[(2S)-3,3,3-trifluoro-2-hydroxypropyl]-4,5-dihydro-1H-1,2,4-triazol-1-yl}methyl)-1H-1,2,4-triazol-1-yl]-N-cyclopropylpyridine-4-carboxamide], in that order: 2000 nM, 29 nM and 69.0.
For the molecule `O=C(NCC(F)(F)F)c1ccncc1-n1cnc(Cn2nc(-c3ccc(Cl)cc3)n(C[C@H](O)C(F)(F)F)c2=O)n1` [Example 489, 3-[3-({3-(4-chlorophenyl)-5-oxo-4-[(2S)-3,3,3-trifluoro-2-hydroxypropyl]-4,5-dihydro-1H-1,2,4-triazol-1-yl}methyl)-1H-1,2,4-triazol-1-yl]-N-(2,2,2-trifluoroethyl)pyridine-4-carboxamide], the IC50 came to 1700 nM on human V2 receptor and 50 nM on human V1a receptor. In addition, on human V1a receptor, the “ratio IC50 hV2/hV1a” value was determined as 34.0.
The matching figures for `O=C(N[C@@H]1C[C@@H]1F)c1ccncc1-n1cnc(Cn2nc(-c3ccc(Cl)cc3)n(C[C@H](O)C(F)(F)F)c2=O)n1` [Example 490, 3-[3-({3-(4-Chlorophenyl)-5-oxo-4-[(2S)-3,3,3-trifluoro-2-hydroxypropyl]-4,5-dihydro-1H-1,2,4-triazol-1-yl}methyl)-1H-1,2,4-triazol-1-yl]-N-[(1R,2S)-2-fluorocyclopropyl]pyridine-4-carboxamide]: 380 nM, 16 nM and 23.8.
For `O=C(NCCC(F)(F)F)c1ccncc1-n1cnc(Cn2nc(-c3ccc(Cl)cc3)n(C[C@H](O)C(F)(F)F)c2=O)n1` [Example 491, 3-[3-({3-(4-Chlorophenyl)-5-oxo-4-[(2S)-3,3,3-trifluoro-2-hydroxypropyl]-4,5-dihydro-1H-1,2,4-triazol-1-yl}methyl)-1H-1,2,4-triazol-1-yl]-N-(3,3,3-trifluoropropyl)pyridine-4-carboxamide], in that order: 1300 nM, 21 nM and 61.9.
For `CC1(NC(=O)c2ccncc2-n2cnc(Cn3nc(-c4ccc(Cl)cc4)n(C[C@H](O)C(F)(F)F)c3=O)n2)CC1` [Example 492, 3-[3-({3-(4-Chlorophenyl)-5-oxo-4-[(2S)-3,3,3-trifluoro-2-hydroxypropyl]-4,5-dihydro-1H-1,2,4-triazol-1-yl}methyl)-1H-1,2,4-triazol-1-yl]-N-(1-methylcyclopropyl)pyridine-4-carboxamide], in that order: 440 nM, 1.8 nM and 244.4.
In the case of `O=C(NCC(F)(F)F)c1cccnc1-n1cnc(Cn2nc(-c3ccc(Cl)cc3)n(C[C@H](O)C(F)(F)F)c2=O)n1` [Example 494, 2-[3-({3-(4-chlorophenyl)-5-oxo-4-[(2S)-3,3,3-trifluoro-2-hydroxypropyl]-4,5-dihydro-1H-1,2,4-triazol-1-yl}methyl)-1H-1,2,4-triazol-1-yl]-N-(2,2,2-trifluoroethyl)pyridine-3-carboxamide], the IC50 on human V2 receptor came to 130 nM. Also, on human V1a receptor, the IC50 stood at 24.5 nM and the “ratio IC50 hV2/hV1a” value is recorded as 5.3.
The matching figures for `CNC(=O)c1cccnc1-n1cnc(Cn2nc(-c3ccc(Cl)cc3)n(C[C@H](O)C(F)(F)F)c2=O)n1` [Example 495, 2-[3-({3-(4-chlorophenyl)-5-oxo-4-[(2S)-3,3,3-trifluoro-2-hydroxypropyl]-4,5-dihydro-1H-1,2,4-triazol-1-yl}methyl)-1H-1,2,4-triazol-1-yl]-N-methylpyridine-3-carboxamide]: 520 nM, 20 nM and 26.0.
Turning to `O=C(NC1CC1)c1cccnc1-n1cnc(Cn2nc(-c3ccc(Cl)cc3)n(C[C@H](O)C(F)(F)F)c2=O)n1` [Example 496, 2-[3-({3-(4-chlorophenyl)-5-oxo-4-[(2S)-3,3,3-trifluoro-2-hydroxypropyl]-4,5-dihydro-1H-1,2,4-triazol-1-yl}methyl)-1H-1,2,4-triazol-1-yl]-N-cyclopropylpyridine-3-carboxamide], on human V2 receptor, the IC50 came to 170 nM. Also, at human V1a receptor, the IC50 was 7.2 nM and the “ratio IC50 hV2/hV1a” value amounted to 23.6.
For `O=C(NCCC(F)(F)F)c1cccnc1-n1cnc(Cn2nc(-c3ccc(Cl)cc3)n(C[C@H](O)C(F)(F)F)c2=O)n1` [Example 497, 2-[3-({3-(4-chlorophenyl)-5-oxo-4-[(2S)-3,3,3-trifluoro-2-hydroxypropyl]-4,5-dihydro-1H-1,2,4-triazol-1-yl}methyl)-1H-1,2,4-triazol-1-yl]-N-(3,3,3-trifluoropropyl)pyridine-3-carboxamide], in that order: 490 nM, 26.5 nM and 18.5.
For `O=C(NC1CC(F)(F)C1)c1cccnc1-n1cnc(Cn2nc(-c3ccc(Cl)cc3)n(C[C@H](O)C(F)(F)F)c2=O)n1` [Example 498, 2-[3-({3-(4-Chlorophenyl)-5-oxo-4-[(2S)-3,3,3-trifluoro-2-hydroxypropyl]-4,5-dihydro-1H-1,2,4-triazol-1-yl}methyl)-1H-1,2,4-triazol-1-yl]-N-(3,3-difluorocyclobutyl)pyridine-3-carboxamide], in that order: 470 nM, 10.5 nM and 44.8.
As to `O=C(NCC1CC1)c1cccnc1-n1cnc(Cn2nc(-c3ccc(Cl)cc3)n(C[C@H](O)C(F)(F)F)c2=O)n1` [Example 499, 2-[3-({3-(4-Chlorophenyl)-5-oxo-4-[(2S)-3,3,3-trifluoro-2-hydroxypropyl]-4,5-dihydro-1H-1,2,4-triazol-1-yl}methyl)-1H-1,2,4-triazol-1-yl]-N-(cyclopropylmethyl)pyridine-3-carboxamide], the IC50 at human V2 receptor amounted to 505 nM. For the same molecule, on human V1a receptor, the IC50 amounted to 15 nM and the “ratio IC50 hV2/hV1a” value amounted to 33.7.
For `O=C(NC1CC1(F)F)c1cccnc1-n1cnc(Cn2nc(-c3ccc(Cl)cc3)n(C[C@H](O)C(F)(F)F)c2=O)n1` (stereo partly drawn) [Example 500, 2-[3-({3-(4-Chlorophenyl)-5-oxo-4-[(2S)-3,3,3-trifluoro-2-hydroxypropyl]-4,5-dihydro-1H-1,2,4-triazol-1-yl}methyl)-1H-1,2,4-triazol-1-yl]-N-(2,2-difluorocyclopropyl)pyridine-3-carboxamide], in that order: 305 nM, 6.8 nM and 44.9.
The matching figures for `COC[C@H]1CCCN1C(=O)c1cccnc1-n1cnc(Cn2nc(-c3ccc(Cl)cc3)n(C[C@H](O)C(F)(F)F)c2=O)n1` [Example 501, 5-(4-Chlorophenyl)-2-{[1-(3-{[(2R)-2-(methoxymethyl)pyrrolidin-1-yl]carbonyl}pyridin-2-yl)-1H-1,2,4-triazol-3-yl]methyl}-4-[(2S)-3,3,3-trifluoro-2-hydroxypropyl]-2,4-dihydro-3H-1,2,4-triazol-3-one]: 530 nM, 30.5 nM and 17.4.
`COC[C@@H]1CCCN1C(=O)c1cccnc1-n1cnc(Cn2nc(-c3ccc(Cl)cc3)n(C[C@H](O)C(F)(F)F)c2=O)n1` [Example 502, 5-(4-Chlorophenyl)-2-{[1-(3-{[(2S)-2-(methoxymethyl)pyrrolidin-1-yl]carbonyl}pyridin-2-yl)-1H-1,2,4-triazol-3-yl]methyl}-4-[(2S)-3,3,3-trifluoro-2-hydroxypropyl]-2,4-dihydro-3H-1,2,4-triazol-3-one]: on human V2 receptor, the IC50 amounted to 2000 nM. For the same molecule, at human V1a receptor, the IC50 came to 29.5 nM and the “ratio IC50 hV2/hV1a” value was found to be 67.8.
The matching figures for `CC1(NC(=O)c2cccnc2-n2cnc(Cn3nc(-c4ccc(Cl)cc4)n(C[C@H](O)C(F)(F)F)c3=O)n2)CC1` [Example 505, 2-[3-({3-(4-Chlorophenyl)-5-oxo-4-[(2S)-3,3,3-trifluoro-2-hydroxypropyl]-4,5-dihydro-1H-1,2,4-triazol-1-yl}methyl)-1H-1,2,4-triazol-1-yl]-N-(1-methylcyclopropyl)pyridine-3-carboxamide]: 55 nM, 1.05 nM and 52.6.
Consider `N#CC1(NC(=O)c2cccnc2-n2cnc(Cn3nc(-c4ccc(Cl)cc4)n(C[C@H](O)C(F)(F)F)c3=O)n2)CC1` [Example 506, 2-[3-({3-(4-Chlorophenyl)-5-oxo-4-[(2S)-3,3,3-trifluoro-2-hydroxypropyl]-4,5-dihydro-1H-1,2,4-triazol-1-yl}methyl)-1H-1,2,4-triazol-1-yl]-N-(1-cyanocyclopropyl)pyridine-3-carboxamide], for which the IC50 on human V2 receptor is 905 nM. On human V1a receptor, the IC50 stood at 14 nM and the “ratio IC50 hV2/hV1a” value is recorded as 64.6.
